Measured values taken from US5212159A, “Anticataract composition” (Senju Pharmaceutical Co., Ltd., priority 1991, dated 1993).

Tested on: Streptozotocin-induced Diabetic Cataract
Assay: Inhibitory effect on streptozotocin-induced diabetic cataract (slit-lamp cataract score, Sasaki scale)
Format: in vivo, male SD rats
Method: Streptozotocin (hereafter abbreviated as STZ), 70 mg/kg, was administered intravenously to 28 male SD rats aged 4 weeks to induce diabetes. Thereafter, the animals were divided into three groups (two groups consisting of 10 animals each and a group consisting of 8 animals). […] The lens was examined with a slit lamp under mydriasis with Mydrin-P before the beginning of drug administration and every seven days after initiation of administration. The degree of cataract was scored according to the rating scale of Sasaki et al. (Ophthalmic Res. 15: 185-190, 1983) and the anticataract activity of each drug was tested by time series analysis of variance. Body weights were taken on each observation day. […] Rating scale of Sasaki et al. 0: No abnormality. […] Vacuoles are present in the equator of the lens. […] Vacuoles spread toward the anterior pole beneath the cortex of the anterior lens capsule. […] Vacuole begin to merge. […] The deep layer of the cortex of the anterior lens capsule is cloudy. […] The central part of the lens is milk white in color. […] Virtually the entire lens is milk white in color (mature cataract).

[1] = compared with the control group, 100 mg/kg/day i.p. for 56 days
[2] = day 7 after the beginning of treatment, 100 mg/kg/day i.p.
[3] = day 14 after the beginning of treatment, 100 mg/kg/day i.p.
[4] = day 21 after the beginning of treatment, 100 mg/kg/day i.p.
[5] = day 28 after the beginning of treatment, 100 mg/kg/day i.p.
[6] = day 35 after the beginning of treatment, 100 mg/kg/day i.p.
[7] = day 42 after the beginning of treatment, 100 mg/kg/day i.p.
[8] = day 49 after the beginning of treatment, 100 mg/kg/day i.p.
[9] = day 56 after the beginning of treatment, 100 mg/kg/day i.p.

With `N[C@@H](CCC(=O)N[C@@H](CS)C(=O)NCC(=O)O)C(=O)O` [Glutathione, glutathione] the “Degree of progression of cataract, time series analysis of variance” value [1] was “no significant difference from the control group”, the “Time at which cataract scores were reached” value [1] was “scores of 5 and 6 were reached later than in the control group” and the “Number of eyes with cataract score 0” value (day 0 after the beginning of treatment, 100 mg/kg/day i.p.) was 16 eyes. For the same compound, the “Number of eyes with cataract score 0” value [2] was 7 eyes, the “Number of eyes with cataract score 1” value [2] was 9 eyes and the “Number of eyes with cataract score 0” value [3] was 1 eyes. For the same compound, the “Number of eyes with cataract score 1” value [3] was 13 eyes, the “Number of eyes with cataract score 2” value [3] was 2 eyes and the “Number of eyes with cataract score 1” value [4] was 3 eyes. For the same compound, the “Number of eyes with cataract score 2” value [4] was 13 eyes, the “Number of eyes with cataract score 2” value [5] was 9 eyes and the “Number of eyes with cataract score 3” value [5] was 7 eyes. The “Number of eyes with cataract score 2” value [6] was 3 eyes, the “Number of eyes with cataract score 3” value [6] was 8 eyes and the “Number of eyes with cataract score 4” value [6] was 3 eyes. The “Number of eyes with cataract score 3” value [7] was 11 eyes, the “Number of eyes with cataract score 4” value [7] was 3 eyes and the “Number of eyes with cataract score 3” value [8] was 10 eyes. The “Number of eyes with cataract score 4” value [8] was 3 eyes, the “Number of eyes with cataract score 5” value [8] was 1 eyes and the “Number of eyes with cataract score 3” value [9] was 4 eyes. The “Number of eyes with cataract score 4” value [9] was 6 eyes, the “Number of eyes with cataract score 5” value [9] was 3 eyes and the “Number of eyes with cataract score 6” value [9] was 1 eyes.
